Source: ChEMBL document CHEMBL5352459, “Resorcinol-based hemiindigoid derivatives as human tyrosinase inhibitors and melanogenesis suppressors in human melanoma cells” (Eur J Med Chem, 2023)

T1: Tyrosinase (Homo sapiens, UniProt P14679)
T1 sequence (P14679 whole entry): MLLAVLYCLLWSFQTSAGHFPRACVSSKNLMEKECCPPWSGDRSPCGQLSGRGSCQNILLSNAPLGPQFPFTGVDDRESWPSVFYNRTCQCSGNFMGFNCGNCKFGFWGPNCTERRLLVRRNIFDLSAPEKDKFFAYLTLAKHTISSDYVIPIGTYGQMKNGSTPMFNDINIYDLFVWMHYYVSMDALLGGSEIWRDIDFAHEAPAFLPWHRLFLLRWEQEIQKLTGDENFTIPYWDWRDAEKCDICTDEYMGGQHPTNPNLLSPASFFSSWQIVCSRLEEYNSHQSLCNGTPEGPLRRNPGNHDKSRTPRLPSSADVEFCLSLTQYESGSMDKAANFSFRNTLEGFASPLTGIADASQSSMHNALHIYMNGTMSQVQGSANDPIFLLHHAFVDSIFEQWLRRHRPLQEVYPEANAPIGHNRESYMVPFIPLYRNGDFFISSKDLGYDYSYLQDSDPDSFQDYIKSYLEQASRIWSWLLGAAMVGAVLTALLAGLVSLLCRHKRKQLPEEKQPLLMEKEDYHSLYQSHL


Experiments:
[1] = target: T1, Tyrosinase
[2] = target: T1, Tyrosinase; experiment: Inhibition of human tyrosinase
[3] = target: Mushroom tyrosinase (Agaricus bisporus, UniProt O42713+Q00024+C7FF04+C7FF05)
[4] = in vitro; conditions: human, MNT-1 cells
Description: Cytotoxicity against human MNT-1 cells

[5] = target: T1, Tyrosinase; remark: listed apart in the source
[6] = system: MNT-1; experiment: cells; conditions: Homo sapiens, MNT-1, 96 h
Description: Inhibition of melanogenesis in human MNT-1 cells incubated for 96 hrs

[7] = compound: O=C1/C(=C/c2ccc(O)cc2O)Oc2c(O)cccc21; format: cell-based; conditions: Homo sapiens; HEK293T; dose 0-8 µM, time 1.0 hrs
[8] = compound: O=C1/C(=C/c2ccc(O)cc2O)Cc2c(O)cccc21; format: cell-based; conditions: Homo sapiens; HEK293T; dose 0-8 µM, time 1.0 hrs
[9] = compound: O=C1/C(=C/c2ccc(O)cc2O)Oc2c(O)cccc21; format: cell-based; conditions: Homo sapiens; HEK293T; dose 0-8 µM, time 1.0 hrs; remark: listed apart in the source
[10] = compound: O=C1/C(=C/c2ccc(O)cc2O)Cc2c(O)cccc21; format: cell-based; conditions: Homo sapiens; HEK293T; dose 0-8 µM, time 1.0 hrs; remark: listed apart in the source
[11] = compound: O=C1/C(=C/c2ccc(O)cc2O)Oc2c(O)cccc21; format: cell-based; conditions: Homo sapiens; HEK293T; dose 0-8 µM, time 1.0 hrs; remark: listed apart in the source
[12] = compound: O=C1/C(=C/c2ccc(O)cc2O)Cc2c(O)cccc21; format: cell-based; conditions: Homo sapiens; HEK293T; dose 0-8 µM, time 1.0 hrs; remark: listed apart in the source

| IC50 [1] [µM] | Molecule | further results |
| --- | --- | --- |
| > 100 | O=C1/C(=C/c2ccc(O)cc2O)Oc2cc(Cl)ccc21 |  |
| 5.8 | O=C1/C(=C/c2ccc(O)cc2O)Sc2cc(O)ccc21 |  |
| > 100 | CCCCOc1ccc2c(c1)O/C(=C\c1ccc(O)cc1O)C2=O |  |
| 18 | O=C1/C(=C/c2ccc(O)cc2O)Oc2ccccc21 |  |
| > 100 | COc1cc(O)ccc1/C=C1\Oc2cc(O)ccc2C1=O |  |
| 60 | O=C(/C=C/c1ccc(O)cc1O)c1ccccc1 |  |
| 8.3 | CCCCc1ccc(O)cc1O [RUCINOL] |  |
| 88 | O=C1/C(=C/c2ccc(O)cc2O)Oc2cc(F)cc(F)c21 |  |
| 5.9 | O=C1/C(=C/c2ccc(O)cc2O)Sc2ccccc21 |  |
| 15 | O=C1/C(=C/c2c(O)cc(O)cc2O)Oc2cc(O)ccc21 |  |
| 11.8 | O=C1/C(=C/c2ccc(O)cc2O)Oc2c1ccc(O)c2O |  |
| > 100 | CN(C)c1ccc2c(c1)O/C(=C\c1ccc(O)cc1O)C2=O |  |
| 3.4 | O=C1/C(=C/c2ccc(O)cc2O)Cc2cc(O)ccc21 |  |
| 7.7 | O=C1/C(=C/c2ccc(O)cc2O)Oc2cc(O)cc(O)c21 |  |
| > 100 | COc1ccc2c(c1C)O/C(=C\c1ccc(O)cc1O)C2=O |  |
| > 100 | COc1ccc2c(c1OC)O/C(=C\c1ccc(O)cc1O)C2=O |  |
| 80 | Cc1c(O)ccc2c1O/C(=C\c1ccc(O)cc1O)C2=O |  |
| 48 | O=C1/C(=C/c2ccc(O)cc2O)Sc2c(O)cccc21 |  |
| > 100 | Cc1c(C(=O)c2ccc(O)cc2O)oc2c(O)cccc12 |  |
| 2.3 | O=C1/C(=C/c2ccc(O)cc2O)Nc2cc(O)ccc21 |  |
| > 100 | Oc1ccc(Cc2cc3cccc(O)c3o2)c(O)c1 |  |

| IC50 [1] [µM] | Molecule | further results |
| --- | --- | --- |
| 12.7 | O=C1/C(=C/c2ccc(O)cc2O)Nc2ccccc21 |  |
|  | Oc1cccc(O)c1 [RESORCINOL] | IC50 [2]: > 3000 µM |
| > 100 | Nc1c(C(=O)c2ccc(O)cc2O)oc2c(O)cccc12 |  |
| > 100 | O=c1cc(-c2ccc(O)cc2O)oc2ccccc12 |  |
| 8.2 | CC1/C(=C\c2ccc(O)cc2O)C(=O)c2ccccc21 (centres undefined) |  |
| 15 | O=C1/C(=C/c2ccc(=O)n(O)c2)Oc2cc(O)ccc21 | Ki [3]: 1.27 µM |
| > 100 | O=c1c2ccccc2[nH]n1Cc1ccc(O)cc1O |  |
| > 100 | O=C1C(=Cc2ccc(O)cc2O)C(=O)c2ccccc21 |  |
| 5.8 | O=C1/C(=C/c2ccc(O)cc2O)Cc2ccccc21 |  |
| 6.9 | COc1ccc2c(c1)O/C(=C\c1ccc(O)cc1O)C2=O |  |
| 1.6 | O=C1/C(=C/c2ccc(O)cc2O)Cc2c(O)cccc21 | CC50 [4]: 91 µM; Ki [5]: 0.25 µM; IC50 [6]: 29 µM |
| 25 | O=C1/C(=C/c2ccc(O)cc2O)Oc2cccc(O)c21 |  |
| 1.57 | O=C1/C(=C/c2ccc(O)cc2O)Oc2c(O)cccc21 | CC50 [4]: 108 µM; Ki [5]: 0.55 µM; IC50 [6]: 32 µM |
| 80 | COc1cccc2c1O/C(=C\c1ccc(O)cc1O)C2=O |  |
| > 100 | COc1cc(OC)c2c(c1)O/C(=C\c1ccc(O)cc1O)C2=O |  |
| 6.4 | O=C1/C(=C/c2ccc(O)cc2O)Oc2cc(O)ccc21 |  |
| 19 | O=C1/C(=C/c2ccc(O)cc2O)Oc2ccc(O)cc21 |  |
| > 100 | O=C1c2ccccc2C(=O)N1Cc1ccc(O)cc1O |  |
| 32 | O=C1/C(=C/c2ccc(O)cc2O)Oc2c1ccc(O)c2I |  |
| 18.4 | CN(C)c1cc(O)c2c(c1)O/C(=C\c1ccc(O)cc1O)C2=O |  |
|  | Tyrosinase (Homo sapiens), P14679 (protein) MLLAVLYCLLWSFQTSAGHFPRACVSSKNLMEKECCPPWSGDRSPCGQLSGRGSCQNILLSNAPLGPQFPFTGVDDRESWPSVFYNRTCQCSGNFMGFNCGNCKFGFWGPNCTERRLLVRRNIFDLSAPEKDKFFAYLTLAKHTISSDYVIPIGTYGQMKNGSTPMFNDINIYDLFVWMHYYVSMDALLGGSEIWRDIDFAHEAPAFLPWHRLFLLRWEQEIQKLTGDENFTIPYWDWRDAEKCDICTDEYMGGQHPTNPNLLSPASFFSSWQIVCSRLEEYNSHQSLCNGTPEGPLRRNPGNHDKSRTPRLPSSADVEFCLSLTQYESGSMDKAANFSFRNTLEGFASPLTGIADASQSSMHNALHIYMNGTMSQVQGSANDPIFLLHHAFVDSIFEQWLRRHRPLQEVYPEANAPIGHNRESYMVPFIPLYRNGDFFISSKDLGYDYSYLQDSDPDSFQDYIKSYLEQASRIWSWLLGAAMVGAVLTALLAGLVSLLCRHKRKQLPEEKQPLLMEKEDYHSLYQSHL | Vmax [7]: 4.86 µmol/min/mg; Vmax [8]: 5.18 µmol/min/mg; kcat [9]: 5.41 s⁻¹; kcat [10]: 5.78 s⁻¹; Km [11]: 143 µM; Km [12]: 161 µM |
